Results on seven compounds are retold here after EP4631931A1, “HDAC INHIBITOR AND USE THEREOF” (Wigen Biomedicine Technology (Shanghai) Co., Ltd., priority 2022, dated 2024).

A value given as a limit tells only on which side of the number the result lay.

In one series the test system is Jurkat cell. Kind of series: Inhibition of Jurkat cell proliferation (CTG, intracellular ATP). Format: cell-based. The note with it: Homo sapiens, 72 h, compared to DMSO group, read-out: Inhibitory activity against Jurkat cell proliferation (IC50). As for the experimental part:
(§1) Jurkat or 293T cells were seeded into a 96-well plate at 3000 cells/well. After overnight adherence culture, the serially diluted compound in DMSO was added. After 72 h, the intracellular ATP level was determined by CTG. The IC50 for the inhibition of cell proliferation by the compounds was calculated compared to the DMSO group. Table 8. Inhibitory activity of compounds of the present disclosure against Jurkat/293T cell proliferation (IC50, µM)

The subject of another series is 293T cell. Kind of series: Inhibition of 293T cell proliferation (CTG, intracellular ATP). Type of series: cell-based. The note with it: Homo sapiens, HEK-293T, 72 h, compared to DMSO group, read-out: Inhibitory activity against 293T cell proliferation (IC50). As for the experimental part: as §1
The next series deals with HeLa cells. Kind of series: Intracellular acetyl lysine / H3K 27 acetyl lysine level by ELISA. Type of series: cell-based. The note with it: 24 h of treatment. As for the experimental part: HeLa cells were seeded into a 96-well plate at 20000 cells/well. After overnight adherence culture, the serially diluted compound was added. After 24 h of treatment, intracellular levels of acetyl lysine and H3K 27 acetyl lysine were quantified by ELISA. Table 9. Effect of compound of the present disclosure on levels of acetyl lysine and H3K 27 acetyl lysine
On the technique in general: An ELISA detects its analyte on a solid surface through an enzyme-linked reagent.

Series [1] in a line: Pharmacokinetic experiment in mice. Type of series: in vivo, CD-1 female mice. Conditions: female, CD-1, mouse, plasma; for Vd: read-out: Vdss. As to the method:
CD-1 female mice aged 7 to 10 weeks were intravenously administered and orally administered at doses of 1 mg/kg and 10 mg/kg, respectively. The mice were fasted for at least 12 h before the administration and given food 4 h after the administration, and they were given ad libitum access to water during the experiment.
On the day of the experiment, animals in the intravenous group were given the corresponding compound by single injection via the tail vein at an administration volume of 10 mL/kg; and animals in the oral group were given the corresponding compound by single intragastric injection at an administration volume of 10 mL/kg. The animals were weighed before administration, and the administration volume was calculated according to the body weight. The sample collection time points were 0.083 h, 0.167 h, 0.5 h, 1 h, 2 h, 4 h, 8 h, and 24 h. About 200 µL of whole blood was collected through the orbital venous plexus at each time point and used to prepare plasma for concentration determination by high-performance liquid chromatography-tandem mass spectrometry (LC-MS/MS). The plasma concentrations were processed using a non-compartmental model of Winnolin pharmacokinetic software, and the pharmacokinetic parameters were calculated using a linear-log trapezoidal method. Table 13. Results of in vivo pharmacokinetic evaluation of compounds of the present disclosure

Series [2] in a line: Stability in liver microsomes. Type of series: in vitro ADME. Conditions: 1 µM compound, NADPH, 37 °C. As to the method:
After the 1 µM compound was incubated with 0.5 mg/mL of human or mouse liver microsomes and an NADPH regeneration system at 37 °C for different times, respectively, LC-MS-MS was used to analyze the remaining amount of the compound and calculate T1/2. Table 12. Evaluation results of stability of compounds of the present disclosure in human and mouse liver microsomes
For orientation: Liver microsomes are vesicles of endoplasmic reticulum, rich in cytochrome P450 enzymes.

Where [3] appears, read: Injection (1 mg/kg), intravenous.
Setting [4] is: Human liver microsomes 0.5 mg/mL.
[5] abbreviates: Mouse liver microsomes 0.5 mg/mL.

In the case of `[2H]c1c(F)ccc(NC(=O)c2ccc(CNC(=O)/C=C/c3cccnc3)cc2)c1N` [Compound 2], the IC50 in the series with Jurkat cell came out at 1.68 µM. Also, the IC50 in the series with 293T cell is above 10 µM. Besides, in the series with HeLa cells, the “Acetyl lysine Maximum (%)” value turned out to be 420%, the “Acetyl lysine Minimum effective concentration” value came to 16 nM, the “H3K 27 Acetyl lysine Maximum (%)” value came to 360% and the “H3K 27 Acetyl lysine Minimum effective concentration” value amounted to 80 nM. In series [1] (setting [3]), the AUC(0-t) (commonly the area under the concentration-time curve up to a stated or last time point) was 441 ng·h/mL; the clearance (in general, the volume of plasma or blood freed of the substance per unit of time) was determined as 37.8 mL/min/kg; the half-life (as a rule, how long it takes for the measured level to halve) is 2.3 h; the Vd amounted to 1.61 L/kg. In addition, in series [1] (Oral administration (10 mg/kg)), the AUC(0-t) amounted to 2160 ng·h/mL; the peak concentration (Cmax) (as a rule, the peak of the concentration-time curve) is 2360 ng/mL; the Tmax (usually the time at which the peak concentration occurs) came to 0.08 h; the bioavailability (usually the share of a dose that reaches the circulation, judged against a reference dose that is usually intravenous) is 46.5%. The half-life in series [1] (Oral administration (10 mg/kg)) is 1.85 h.
On to `[2H]c1cc(F)cc(N)c1NC(=O)c1ccc(CNC(=O)/C=C/c2cccnc2)cc1` [Compound 3], for which the IC50 in the series with Jurkat cell worked out at 1.86 µM. Further, in the series with 293T cell, the IC50 is 7.5 µM. For the same compound, in series [1] (setting [3]), the area under the curve AUC(0-t) is 592 ng·h/mL, the clearance stood at 28.1 mL/min/kg, the half-life was 2.78 h and the Vd stood at 0.93 L/kg. In addition, in series [1] (Oral administration (10 mg/kg)), the AUC(0-t) is 1770 ng·h/mL, the Cmax stood at 2350 ng/mL, the Tmax was found to be 0.08 h and the bioavailability came out at 26.3%. Also, the half-life in series [1] (Oral administration (10 mg/kg)) is 2.21 h.
With `[2H]c1cc(CNC(=O)/C=C/c2cccnc2)ccc1C(=O)Nc1ccc(F)cc1N` [Compound 4], in the series with Jurkat cell, the IC50 is 1.7 µM. The IC50 in the series on 293T cell is 3.26 µM. In addition, in series [2] (setting [4]), the CLint scaled – broadly, the capacity of the preparation to metabolise the compound, expressed as a volume cleared per time – at 1 µM amounted to 19.5 mL/min/kg; the “Clliver” value worked out at 10.03 mL/min/kg; the half-life at 1 µM was 1.49 h. In addition, in series [2] (setting [5]), the CLint scaled at 1 µM turned out to be 244 mL/min/kg, the “Clliver” value is on record as 65.74 mL/min/kg and the half-life at 1 µM worked out at 0.373 h. Further, in series [1] (setting [3]), the AUC(0-t) was 602 ng·h/mL, the clearance is 27.7 mL/min/kg, the half-life is 3.05 h and the Vd is 1.32 L/kg. In series [1] (Oral administration (10 mg/kg)), the AUC(0-t) was 1710 ng·h/mL, the Cmax was 1740 ng/mL, the Tmax turned out to be 0.08 h and the bioavailability was 28.5%. The half-life in series [1] (Oral administration (10 mg/kg)) was 3.9 h.
As to `[2H]/C(=C\C(=O)NCc1ccc(C(=O)Nc2ccc(F)cc2N)cc1)c1cccnc1` [Compound 8], the IC50 in the series with Jurkat cell was 1.58 µM. In addition, in the series on 293T cell, the IC50 came to 4.01 µM. In series [2] (setting [4]), the CLint scaled at 1 µM is 18.4 mL/min/kg, the “Clliver” value came out at 9.73 mL/min/kg and the half-life at 1 µM is 1.58 h. Besides, in series [2] (setting [5]), the CLint scaled at 1 µM was 285 mL/min/kg, the “Clliver” value stood at 68.41 mL/min/kg and the half-life at 1 µM worked out at 0.319 h. In addition, in series [1] (setting [3]), the AUC(0-t) was 903 ng·h/mL, the clearance was found to be 36.9 mL/min/kg, the half-life was 1.01 h and the Vd worked out at 1.21 L/kg. In series [1] (Oral administration (10 mg/kg)), the AUC(0-t) worked out at 1430 ng·h/mL, the peak level (Cmax) was 824 ng/mL, the Tmax amounted to 0.08 h and the bioavailability worked out at 29.6%. Moreover, the half-life in series [1] (Oral administration (10 mg/kg)) was 1.87 h.
In the case of `[2H]c1ncccc1/C=C/C(=O)NCc1ccc(C(=O)Nc2ccc(F)cc2N)cc1` [Compound 9], the IC50 in the series with Jurkat cell worked out at 1.08 µM. Moreover, in the series with 293T cell, the IC50 turned out to be 5.18 µM. In addition, in series [2] (setting [4]), the CLint scaled at 1 µM was 4.59 mL/min/kg, the “Clliver” value is reported as 3.75 mL/min/kg and the half-life at 1 µM came out at 6.32 h. In addition, in series [2] (setting [5]), the CLint scaled at 1 µM was 118 mL/min/kg, the “Clliver” value is reported as 50.99 mL/min/kg and the half-life at 1 µM turned out to be 0.773 h. In addition, in series [1] (setting [3]), the AUC(0-t) worked out at 1000 ng·h/mL, the clearance is 16.6 mL/min/kg, the half-life is 1.48 h and the Vd was found to be 0.44 L/kg. For the same compound, in series [1] (Oral administration (10 mg/kg)), the AUC(0-t) turned out to be 1050 ng·h/mL, the concentration peaked (Cmax) at 1640 ng/mL, the Tmax turned out to be 0.17 h and the bioavailability is 10.5%. Besides, the half-life in series [1] (Oral administration (10 mg/kg)) was 1.21 h.
With `[2H]c1cncc(/C=C/C(=O)NCc2ccc(C(=O)Nc3ccc(F)cc3N)cc2)c1` [Compound 11], the IC50 in the series with Jurkat cell was determined as 0.95 µM. Also, the IC50 with 293T cell turned out to be 5.16 µM. For the same compound, in the series on HeLa cells, the “Acetyl lysine Maximum (%)” value was 450%, the “Acetyl lysine Minimum effective concentration” value is 80 nM, the “H3K 27 Acetyl lysine Maximum (%)” value amounted to 460% and the “H3K 27 Acetyl lysine Minimum effective concentration” value was 80 nM. Also, in series [2] (setting [4]), the intrinsic metabolic clearance (CLint scaled) at 1 µM turned out to be 23.7 mL/min/kg, the “Clliver” value was found to be 11.04 mL/min/kg and the half-life at 1 µM is 1.22 h. In series [2] (setting [5]), the CLint scaled at 1 µM amounted to 231 mL/min/kg, the “Clliver” value was determined as 64.76 mL/min/kg and the half-life at 1 µM was found to be 0.394 h. Also, in series [1] (setting [3]), the AUC(0-t) was found to be 733 ng·h/mL, the clearance was 22.7 mL/min/kg, the half-life is 1.79 h and the Vd came to 0.62 L/kg. Moreover, in series [1] (Oral administration (10 mg/kg)), the AUC(0-t) was 1330 ng·h/mL, the Cmax is 2370 ng/mL, the Tmax came out at 0.08 h and the bioavailability was 18.2%. The same compound showed a half-life in series [1] (Oral administration (10 mg/kg)) of 1.19 h.
For `[2H]c1ccc(/C=C/C(=O)NCc2ccc(C(=O)Nc3ccc(F)cc3N)cc2)cn1` [Compound 12], the IC50 in the series on Jurkat cell was 1.59 µM. The IC50 in the series on 293T cell stood at 5.31 µM. In series [2] (setting [4]), the CLint scaled at 1 µM worked out at 2.87 mL/min/kg, the “Clliver” value is given as 2.52 mL/min/kg and the half-life at 1 µM was 10.1 h. Further, in series [2] (setting [5]), the CLint scaled at 1 µM was 108 mL/min/kg, the “Clliver” value is listed as 49.05 mL/min/kg and the half-life at 1 µM was determined as 0.844 h. In series [1] (setting [3]), the AUC(0-t) is 514 ng·h/mL, the clearance stood at 32.4 mL/min/kg, the half-life was 1.17 h and the Vd was 0.71 L/kg. For the same compound, in series [1] (Oral administration (10 mg/kg)), the AUC(0-t) was 1610 ng·h/mL, the Cmax worked out at 2080 ng/mL, the Tmax was found to be 0.17 h and the bioavailability worked out at 30.5%. Further, in series [1] (Oral administration (10 mg/kg)), the half-life was 1.93 h.
